Test results as given in the pKa sets of Baltruschat and Czodrowski (2020).
Several values for one entry are separate records, joined by “and”; a condition that tells them apart may be missing. Equal values may be shown once.

Conditions: acidic group

Row | Structure (SMILES) | pKa
1 | O/N=C1/CCCC(=N\O)/C1=N/O | 8.21 and 8.12
2 | [O-]c1ccccc1-c1ccccc1O | 14.7
3 | O=C(O)[C@H]1O[C@@H]1C(=O)O | 1.92
4 | CC(C)(C)OOCCC(=O)O | 4.36
5 | Cc1c(C)c2c(c(C)c1OP(=O)([O-])O)CCC(C)(CCC[C@@H](C)CCC[C@@H](C)CCCC(C)C)O2 (some centres undefined) | 9.44
6 | Cn1nc(Cl)nc1NN=O | 4.03
7 | Cc1nc(-c2ccccc2)oc1O | 8.94
8 | Nc1[nH]cc(O)[nH+]1 | 4.8
9 | O=C(O)Cc1ccoc1 | 4.07
10 | Oc1c(Cl)cc(Cl)c(Cl)c1C[NH+]1CCOCC1 | 4.84
11 | C/C=C(\Cl)C(=O)O | 3.22
12 | Cc1cc(C)c(O)c(C(C)C)c1 | 11.2
13 | Oc1ccc(Cl)cc1CN1CCOCC1 | 9.85
14 | CC(=O)C(C)C(C)=O | 10.8
15 | [NH3+]c1ccc(CC(=O)O)cc1 | 3.49
16 | CC1(C)[C@@H]2CC[C@](C(=O)O)(C2)[C@H]1O | 5.05
17 | C[n+]1c2ccccc2nc2c(O)cccc21 | 4.85
18 | CC1(C(=O)O)CCC=[N+]1[O-] (centres undefined) | 2.95
19 | CC1C(=O)c2ccccc2C1=O | 6.17
20 | O=Cc1ccccc1B(O)O | 7.31
21 | O=C([O-])c1c(O)ccc2ccccc12 | 10.9
22 | Cc1ncc2c(c1O)C(O)OC2 (centres undefined) | 8.75
23 | COc1nc2ncncc2[nH]1 | 7.73
24 | O=C(O)Cc1ccco1 | 3.72
25 | COc1ccc(/C=C/C(=O)O)cc1 | 4.6
26 | Cc1cc(C(C)(C)C)cc(C)c1C(=O)O | 3.44
27 | Cc1ccc(Br)c(O)c(=O)c1 | 6.3
28 | O=C(c1ccccc1)N(O)c1ccccc1 | 7.87
29 | N#Cc1ccc(S(=O)(=O)NCc2ccccc2)cc1 | 10.3
30 | CCC(O)C(C(=O)O)c1ccc(-c2ccccc2)cc1 (centres undefined) | 4.16

Results, then the compound that gave them:

Row | pKa | Structure (SMILES)
31 | 4.04 | CC(C)(C#N)CC(=O)O
32 | 13.2 | N#CCC[n+]1cccc(C(N)=O)c1.[Br-]
33 | 11.3 | Cc1nc(N)c2cn[nH]c2n1
34 | 12.8 | NCc1nc2ccccc2[nH]1
35 | 3.61 | NC(=O)CC(=O)O

Same assay, conditions: basic group

Row | Structure (SMILES) | pKa
36 | Clc1cc(-c2ccccc2)nnc1NCCN1CCOCC1 | 6.64
37 | COc1ccc(-c2ncc(-c3ccc([NH3+])cc3)o2)cc1 | 0.85
38 | O=C(O[C@@H]1C[C@H]2CC[C@@H](C1)N2)[C@H](CO)c1ccccc1 | 10.3
39 | CCCCCCCCCCCCCCCCCCNCCCCCCCCCCCCCCCCCC | 11
40 | CN(C)c1ccc(N(C)C)cc1 | 6.37
41 | Oc1ccc(Cl)cc1CN1CCOCC1 | 6.78
42 | O=C([O-])CN=C1CCCC1 | 8.72
43 | CN1CCCN1C | 6.67
44 | CCc1ccc([C@@H]2CCC[NH+]2C)cn1 | 3.69
45 | N=C(c1ccccc1)c1cccc(Cl)c1 | 5.69
46 | Cc1ncc2c(c1O)C(O)OC2 (centres undefined) | 4.3
47 | c1ccc(C2NCCS2)cc1 (centres undefined) | 5.2
48 | COc1nc2ncncc2[nH]1 | 3.14
49 | N#Cc1ccccn1 | -0.26
50 | COc1ccc(OC)c2c1nc(CCl)n2C | 4.1
51 | O=C(c1ccccc1)N(O)c1ccccc1 | -2.08
52 | c1ccc2c(CC3=NCCN3)cccc2c1 | 10.3
53 | [O-]c1ncnc2ccccc12 | 9.81
54 | NC(=O)/C=C(\O)c1cccnc1 | 8.01
55 | COc1nc(N)c2cnn(C)c2n1 | 3.66
56 | COc1ccc(N)cc1C(=O)N[C@@H]1C[C@H]2CC[C@@H](C1)N2Cc1ccccc1 | 8.86

The remaining lines, values ahead:

Row | pKa | Structure (SMILES)
57 | 7.7 | CC(C)[NH2+]CCN
58 | 9.51 | Cc1ccc(CN)cc1
59 | 8.32 | CCCC(=O)SCCN(C)C
60 | 10.9 | CC(C)CCNCCC(C)C
61 | 8.9 | NC(=O)NOCCC(N)C(=O)[O-] (centres undefined)
62 | 9.41 | CSCCN
63 | 10.1 | CN(C)CCCCNC(=O)/C=N/[O-]
64 | 3.6 | Cc1nc(C)nc(N)n1
65 | 8.83 | CCN(CC)CCSCC(C)C
66 | 11.2 | CCN(CC)Cc1cc(Cl)ccc1[O-]
67 | 8.83 | CCCSCCN(CC)CC
68 | 9.15 | CC(N)C/C(N)=N/O (centres undefined)
69 | 5.41 | Cc1nc(N)c2cn[nH]c2n1
70 | 5.66 | CCn1cnc2ccccc21
71 | 8.1 | NCc1ccc(C=O)o1
72 | 8.5 | C=CCC(C)(CN(CC)CC)OC(=O)CCC (centres undefined)
73 | 5.62 | CCN(O)CC
74 | 8.02 | NCc1nc2ccccc2[nH]1
